Assays:
Type in all cases: cell-based
mouse fetal hepatocytes [1] = assay: RT-PCR analysis of insulin 1 and 2 gene expression in cultured fetal hepatocytes with medium supplements; conditions: for induction of insulin 1 and 2 gene expression: supplement separately added to DMEM/F12 containing 10% FBS
Protocol: For preparing fetal hepatocytes, the liver of fetal ICR mice (embryonic day 13.5) was excised and treated with 0.1% trypsin-phosphate-buffered saline for 5 min at 37° C. A culture medium solution then was added, and the mixture was filtered through a nylon membrane (#200). The cell suspension thus obtained was centrifuged at 50 g for 5 min. The cell pellet was suspended in a medium consisting of 1:1 DMEM/F12 (Sigma D6421) supplemented with 10% fetal bovine serum, L-glutamine (2 mmol/L), β-mercaptoethanol (β-ME), (50 μmol/L), penicillin (100,000 U/L) and streptomycin (100 mg/L). The formula of the 1:1 DMEM/F12 (Dulbecco's Modified Eagle's Medium/Ham's Nutrient Mixture F-12: Sigma D6421) was as follows (in g/L): Ca2Cl2/2H2O (0.1545), CuSO4/5H2O (0.0000013), Fe(NO3)3/9H2O (0.00005). […]
Both insulin 1 and 2 genes were clearly expressed under the culture conditions used, as determined by RT-PCR analysis. […] Each of these supplements was separately added to the DMEM/F12 containing 10% FBS, and effects on insulin expression was evaluated in thus formed different media. […]

[2] = test system: mouse embryonic fibroblasts (MEF); assay: RT-PCR analysis of insulin 1 and 2 gene expression in mouse embryonic fibroblasts (negative control cells); conditions: MEF from fetal limbs (ED13.5), medium supplemented with nicotinamide; FIG. 1
Protocol: (§1) Both insulin 1 and 2 genes were clearly expressed under the culture conditions used, as determined by RT-PCR analysis. It was assumed that some of the supplements (nicotinamide, EGF, insulin or dexamethasone) to the culture medium were responsible for the expression of the insulin genes in the hepatocytes. Each of these supplements was separately added to the DMEM/F12 containing 10% FBS, and effects on insulin expression was evaluated in thus formed different media. When cultured in a medium not supplemented with nicotinamide (containing just 0.0165 mmol/L of nicotinamide), the mouse fetal hepatocytes either din not express the insulin 1 or 2 gene at all, or did expressed them but only very poorly (FIG. 1). […] As a negative control, mouse embryonic fibroblasts (MEF) were prepared from fetal limbs (ED13.5), and cultured under the same conditions. […] Immunohistochemistry using anti-insulin antibody was employed to confirm that a high-concentration of nicotinamide was requited for the differentiation of mouse fetal hepatocytes into insulin-producing cells.

mouse fetal hepatocytes [3] = assay: Immunohistochemistry using anti-insulin antibody; conditions: medium supplemented with nicotinamide; FIG. 3 vs FIG. 2
Description: Fetal hepatocytes were fixed with 4% paraformaldehyde in 0.1 M phosphate buffer and stained by direct immunoperoxidase method using a guinea pig anti-pig insulin antibody (Zymed Laboratories, South San Francisco, Calif.) and a peroxidase-labeled pig anti-guinea pig IgG (DAKO Japan, Kyoto).
as §1

Molecule | induction of insulin 1 and 2 gene expression (mouse fetal hepatocytes [1]) | expression of the insulin 1 and 2 genes in MEF [2] | expression of the insulin 1 and 2 genes (mouse fetal hepatocytes [1]; medium supplemented with 10 mmol/L of nicotinamide, DMEM/F12 containing 10% FBS, FIG. 1) | generation of insulin-positive cells (anti-insulin immunostaining) (mouse fetal hepatocytes [3])
insulin: insulin, culture medium supplement (172 nmol/L) | either had no effect or had only a marginal effect | – | – | –
NC(=O)c1cccnc1 [nicotinamide] | – | expressed | markedly induced | led to generation of insulin-positive cells
EGF: epidermal growth factor (EGF), culture medium supplement (NSDSECPLSHDGYCLHDGVCMYIEALDKYACNCVVGYIGERCQYRDLKWWELR; Epidermal growth factor; UniProt P01133 971-1023, looked up) | either had no effect or had only a marginal effect | – | – | –
